Results published in paper doi:10.1101/2024.08.19.608619, “Discovery of potent SARS-CoV-2 nsp3 macrodomain inhibitors uncovers lack of translation to cellular antiviral response” (bioRxiv, 2024).

Test system: not listed separately
Experiment: in vitro
Conditions: human, hela-ace2 cells, 50.0

SMILES | CC50 at 24 h [µM]
Cn1ncc(-c2cc3c(N[C@@H](c4ccc5c(n4)OCCO5)C(C)(C)C)ncnc3[nH]2)c1C#N [ASAP-0011221] | > 20

Test system: not listed separately
Experiment: Hepatic microsomal stability, MLM
Type: in vitro ADME
Conditions: In vitro mouse liver microsomal stability

SMILES | clint [µL/min/mg] | perc_remaining [%] | t_half [min]
Cn1ncc(-c2cc3c(N[C@@H](c4ccc5c(n4)OCCO5)C(C)(C)C)ncnc3[nH]2)c1C#N [ASAP-0011221] | 226.0 | 2.0 | 7.4

Same assay, conditions: In vitro mouse liver microsomal stability, no cofactor

SMILES | perc_remaining_no_cofactor [%]
Cn1ncc(-c2cc3c(N[C@@H](c4ccc5c(n4)OCCO5)C(C)(C)C)ncnc3[nH]2)c1C#N [ASAP-0011221] | 94.0

Target: T1, 5-HT3 (h) (Homo sapiens, UniProt P46098)
T1 construct: purchased Eurofins Cerep (SafetyScreen44), recognised from the panel format
T1 sequence (P46098 24-478): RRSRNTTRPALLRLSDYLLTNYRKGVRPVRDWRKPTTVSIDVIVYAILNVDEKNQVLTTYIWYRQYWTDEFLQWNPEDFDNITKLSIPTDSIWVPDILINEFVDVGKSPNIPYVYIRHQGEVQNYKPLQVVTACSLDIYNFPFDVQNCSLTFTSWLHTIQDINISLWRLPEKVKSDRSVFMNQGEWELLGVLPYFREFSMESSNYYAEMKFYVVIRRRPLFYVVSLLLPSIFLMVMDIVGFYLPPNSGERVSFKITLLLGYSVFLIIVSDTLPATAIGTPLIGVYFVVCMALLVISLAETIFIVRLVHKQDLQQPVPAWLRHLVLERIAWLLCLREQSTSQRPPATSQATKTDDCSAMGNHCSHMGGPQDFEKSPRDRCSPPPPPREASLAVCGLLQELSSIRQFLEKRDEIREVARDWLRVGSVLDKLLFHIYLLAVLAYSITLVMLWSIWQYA
Experiment: In vitro CEREP profiling, 5-HT3 (h) (antagonist radioligand)
Type: binding
Conditions: test compound concentration 10 uM
Excerpt: (§1) Supplement media-1.zip/Safety_Panel_Profile.csv, table | column: perc_inhibition

SMILES | perc_inhibition (% inhibition of the binding of a ligand specific for each target) [%]
Cn1ncc(-c2cc3c(N[C@@H](c4ccc5c(n4)OCCO5)C(C)(C)C)ncnc3[nH]2)c1C#N [ASAP-0011221] | 3

Target: T2, N neuronal alpha4beta2 (h) (Homo sapiens, UniProt P17787+P43681)
T2 construct: purchased Eurofins Cerep (SafetyScreen44), recognised from the panel format
Experiment: In vitro CEREP profiling, N neuronal alpha4beta2 (h) (agonist radioligand)
Type: binding
Conditions: test compound concentration 10 uM
Excerpt: as §1

T2 sequence (P43681 29-627 limits assumed): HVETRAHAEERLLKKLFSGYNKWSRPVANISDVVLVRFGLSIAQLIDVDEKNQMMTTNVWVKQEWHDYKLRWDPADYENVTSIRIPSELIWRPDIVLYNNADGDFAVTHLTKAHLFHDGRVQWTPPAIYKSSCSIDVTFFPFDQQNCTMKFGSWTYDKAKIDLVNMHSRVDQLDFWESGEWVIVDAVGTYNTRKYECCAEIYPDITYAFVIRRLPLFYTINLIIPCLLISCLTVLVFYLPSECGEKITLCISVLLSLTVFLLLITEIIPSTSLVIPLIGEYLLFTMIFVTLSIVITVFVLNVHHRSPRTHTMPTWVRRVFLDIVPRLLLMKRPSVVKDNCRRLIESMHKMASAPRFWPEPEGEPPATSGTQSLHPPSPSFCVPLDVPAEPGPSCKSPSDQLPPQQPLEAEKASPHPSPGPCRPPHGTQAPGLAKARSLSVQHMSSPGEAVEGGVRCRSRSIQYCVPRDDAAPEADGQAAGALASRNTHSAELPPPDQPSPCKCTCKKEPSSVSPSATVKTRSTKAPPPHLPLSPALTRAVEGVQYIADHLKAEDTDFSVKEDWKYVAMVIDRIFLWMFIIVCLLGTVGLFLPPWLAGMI
T2 sequence (P17787 26-502): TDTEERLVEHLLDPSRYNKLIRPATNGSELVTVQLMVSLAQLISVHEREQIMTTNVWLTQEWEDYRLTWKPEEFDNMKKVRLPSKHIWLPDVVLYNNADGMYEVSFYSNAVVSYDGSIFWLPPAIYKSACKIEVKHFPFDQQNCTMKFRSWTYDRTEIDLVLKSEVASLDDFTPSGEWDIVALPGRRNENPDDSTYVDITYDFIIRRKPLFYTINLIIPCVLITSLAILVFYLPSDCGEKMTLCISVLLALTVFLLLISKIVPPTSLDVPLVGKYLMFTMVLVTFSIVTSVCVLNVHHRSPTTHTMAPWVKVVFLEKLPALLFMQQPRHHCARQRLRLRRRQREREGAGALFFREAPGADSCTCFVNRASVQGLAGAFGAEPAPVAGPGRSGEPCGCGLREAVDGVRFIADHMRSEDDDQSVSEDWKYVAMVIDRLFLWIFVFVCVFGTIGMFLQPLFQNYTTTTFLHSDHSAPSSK

SMILES | perc_inhibition (% inhibition of the binding of a ligand specific for each target) [%]
Cn1ncc(-c2cc3c(N[C@@H](c4ccc5c(n4)OCCO5)C(C)(C)C)ncnc3[nH]2)c1C#N [ASAP-0011221] | -5

Test system: not listed separately
Experiment: In vitro rat SD liver microsomal stability
Type: in vitro ADME
Conditions: not given
Excerpt: Supplement media-1.zip/Hepatic_Microsomal_Stability.csv, table | column: clint; t_half

SMILES | clint [µL/min/mg] | t_half [min]
Cn1ncc(-c2cc3c(N[C@@H](c4ccc5c(n4)OCCO5)C(C)(C)C)ncnc3[nH]2)c1C#N [ASAP-0011221] | 129.0 | 5.38

Target: T3, norepinephrine transporter (h) (Homo sapiens, UniProt P23975)
T3 construct: purchased Eurofins Cerep (SafetyScreen44), recognised from the panel format
Experiment: In vitro CEREP profiling, norepinephrine transporter (h) (antagonist radioligand)
Type: binding
Conditions: test compound concentration 10 uM
Excerpt: as §1

T3 sequence (P23975 whole entry): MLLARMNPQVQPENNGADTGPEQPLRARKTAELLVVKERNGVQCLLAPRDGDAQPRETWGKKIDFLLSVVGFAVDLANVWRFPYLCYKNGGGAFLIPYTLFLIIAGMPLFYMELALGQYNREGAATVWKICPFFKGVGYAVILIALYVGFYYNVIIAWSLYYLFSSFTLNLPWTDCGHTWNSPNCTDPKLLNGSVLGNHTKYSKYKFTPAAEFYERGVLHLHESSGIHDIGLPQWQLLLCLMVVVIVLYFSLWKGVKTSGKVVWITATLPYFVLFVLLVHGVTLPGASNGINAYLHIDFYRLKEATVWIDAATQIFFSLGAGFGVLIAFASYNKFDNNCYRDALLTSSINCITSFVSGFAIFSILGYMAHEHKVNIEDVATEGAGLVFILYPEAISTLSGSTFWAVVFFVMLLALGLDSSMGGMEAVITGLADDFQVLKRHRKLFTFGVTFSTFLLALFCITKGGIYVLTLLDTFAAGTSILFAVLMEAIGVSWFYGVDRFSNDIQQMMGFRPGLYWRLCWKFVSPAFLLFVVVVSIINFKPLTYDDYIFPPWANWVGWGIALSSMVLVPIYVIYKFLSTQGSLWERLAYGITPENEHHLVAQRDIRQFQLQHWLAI

SMILES | perc_inhibition (% inhibition of the binding of a ligand specific for each target) [%]
Cn1ncc(-c2cc3c(N[C@@H](c4ccc5c(n4)OCCO5)C(C)(C)C)ncnc3[nH]2)c1C#N [ASAP-0011221] | 27

Test system: not listed separately
Experiment: In vitro human hepatocyte stability
Type: in vitro ADME
Conditions: not given
Excerpt: Supplement media-1.zip/Hepatocyte_Stability.csv, table | column: clint; t_half

SMILES | clint [uL/min/1E6 cells] | t_half [min]
Cn1ncc(-c2cc3c(N[C@@H](c4ccc5c(n4)OCCO5)C(C)(C)C)ncnc3[nH]2)c1C#N [ASAP-0011221] | 171.0 | 4.04

Target: T4, delta (DOP) (h) (Homo sapiens, UniProt P41143)
T4 construct: purchased Eurofins Cerep (SafetyScreen44), recognised from the panel format
Experiment: In vitro CEREP profiling, delta (DOP) (h) (agonist radioligand)
Type: binding
Conditions: test compound concentration 10 uM
Excerpt: as §1

T4 sequence (P41143 whole entry): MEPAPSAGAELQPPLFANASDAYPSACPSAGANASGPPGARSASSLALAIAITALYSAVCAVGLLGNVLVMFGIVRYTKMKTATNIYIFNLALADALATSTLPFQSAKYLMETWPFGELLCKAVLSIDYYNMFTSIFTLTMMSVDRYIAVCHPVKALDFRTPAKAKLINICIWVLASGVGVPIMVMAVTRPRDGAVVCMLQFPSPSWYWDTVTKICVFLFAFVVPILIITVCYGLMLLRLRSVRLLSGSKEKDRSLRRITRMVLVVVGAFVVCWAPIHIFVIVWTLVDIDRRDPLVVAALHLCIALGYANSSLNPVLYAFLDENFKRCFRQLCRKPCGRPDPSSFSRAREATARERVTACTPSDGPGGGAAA

SMILES | perc_inhibition (% inhibition of the binding of a ligand specific for each target) [%]
Cn1ncc(-c2cc3c(N[C@@H](c4ccc5c(n4)OCCO5)C(C)(C)C)ncnc3[nH]2)c1C#N [ASAP-0011221] | 15

Target: T5, CB2 (h) (Homo sapiens, UniProt P34972)
T5 construct: purchased Eurofins Cerep (SafetyScreen44), recognised from the panel format
Experiment: In vitro CEREP profiling, CB2 (h) (agonist radioligand)
Type: binding
Conditions: test compound 10 uM
Excerpt: as §1

T5 sequence (P34972 whole entry): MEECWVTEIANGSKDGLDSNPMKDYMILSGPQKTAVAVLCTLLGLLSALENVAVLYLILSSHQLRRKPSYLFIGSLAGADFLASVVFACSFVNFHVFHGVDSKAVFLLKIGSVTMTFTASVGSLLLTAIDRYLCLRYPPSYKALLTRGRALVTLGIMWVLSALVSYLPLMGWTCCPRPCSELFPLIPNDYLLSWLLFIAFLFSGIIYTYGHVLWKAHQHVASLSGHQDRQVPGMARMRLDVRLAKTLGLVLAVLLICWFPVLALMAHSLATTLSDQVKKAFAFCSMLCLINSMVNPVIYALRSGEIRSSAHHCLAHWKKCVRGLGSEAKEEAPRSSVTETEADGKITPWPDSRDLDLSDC

SMILES | perc_inhibition (% inhibition of the binding of a ligand specific for each target) [%]
Cn1ncc(-c2cc3c(N[C@@H](c4ccc5c(n4)OCCO5)C(C)(C)C)ncnc3[nH]2)c1C#N [ASAP-0011221] | 31

Test system: not listed separately
Experiment: Protein binding
Type: in vitro ADME
Conditions: In vitro dog plasma protein binding
Excerpt: Supplement media-1.zip/Protein_Binding.csv, table | column: fu; perc_bound; perc_free; perc_recovered

SMILES | fu | perc_bound [%] | perc_free [%] | perc_recovered [%]
Cn1ncc(-c2cc3c(N[C@@H](c4ccc5c(n4)OCCO5)C(C)(C)C)ncnc3[nH]2)c1C#N [ASAP-0011221] | 0.012 | 98.8 | 1.2 | 99.93

Same assay, conditions: In vitro fetal calf serum protein binding

SMILES | fu | perc_bound [%] | perc_free [%] | perc_recovered [%]
Cn1ncc(-c2cc3c(N[C@@H](c4ccc5c(n4)OCCO5)C(C)(C)C)ncnc3[nH]2)c1C#N [ASAP-0011221] | 0.021 | 97.9 | 2.13 | 99.13

Same assay, conditions: In vitro human plasma protein binding

SMILES | fu | perc_bound [%] | perc_free [%] | perc_recovered [%]
Cn1ncc(-c2cc3c(N[C@@H](c4ccc5c(n4)OCCO5)C(C)(C)C)ncnc3[nH]2)c1C#N [ASAP-0011221] | 0.006 | 99.4 | 0.571 | 99.19

Same assay, conditions: In vitro mouse plasma protein binding

SMILES | fu | perc_bound [%] | perc_free [%] | perc_recovered [%]
Cn1ncc(-c2cc3c(N[C@@H](c4ccc5c(n4)OCCO5)C(C)(C)C)ncnc3[nH]2)c1C#N [ASAP-0011221] | 0.011 | 98.9 | 1.06 | 98.18

Same assay, conditions: In vitro rat plasma protein binding

SMILES | fu | perc_bound [%] | perc_free [%] | perc_recovered [%]
Cn1ncc(-c2cc3c(N[C@@H](c4ccc5c(n4)OCCO5)C(C)(C)C)ncnc3[nH]2)c1C#N [ASAP-0011221] | 0.018 | 98.2 | 1.83 | 90.47

Target: T6, CCK1 (CCKA) (h) (Homo sapiens, UniProt P32238)
T6 construct: purchased Eurofins Cerep (SafetyScreen44), recognised from the panel format
T6 sequence (P32238 1-428): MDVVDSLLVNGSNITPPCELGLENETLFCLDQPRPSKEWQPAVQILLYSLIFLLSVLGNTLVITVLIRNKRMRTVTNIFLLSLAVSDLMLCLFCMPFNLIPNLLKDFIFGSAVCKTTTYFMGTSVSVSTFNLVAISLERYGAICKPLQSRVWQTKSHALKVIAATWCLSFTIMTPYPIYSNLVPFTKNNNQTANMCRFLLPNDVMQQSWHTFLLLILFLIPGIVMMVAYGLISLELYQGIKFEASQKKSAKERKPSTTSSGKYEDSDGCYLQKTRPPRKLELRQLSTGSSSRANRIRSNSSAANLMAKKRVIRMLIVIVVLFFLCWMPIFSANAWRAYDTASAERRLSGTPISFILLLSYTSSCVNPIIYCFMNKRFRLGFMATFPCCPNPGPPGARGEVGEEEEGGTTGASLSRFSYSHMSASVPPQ
Experiment: In vitro CEREP profiling, CCK1 (CCKA) (h) (agonist radioligand)
Type: binding
Conditions: test compound 10 uM
Excerpt: as §1

SMILES | perc_inhibition (% inhibition of the binding of a ligand specific for each target) [%]
Cn1ncc(-c2cc3c(N[C@@H](c4ccc5c(n4)OCCO5)C(C)(C)C)ncnc3[nH]2)c1C#N [ASAP-0011221] | 4

Test system: BZD (central)
Experiment: In vitro CEREP profiling, BZD (central) (agonist radioligand)
Type: binding
Conditions: test compound 10 uM
Excerpt: as §1

SMILES | perc_inhibition (% inhibition of the binding of a ligand specific for each target) [%]
Cn1ncc(-c2cc3c(N[C@@H](c4ccc5c(n4)OCCO5)C(C)(C)C)ncnc3[nH]2)c1C#N [ASAP-0011221] | -5

Target: T7, MAO-A (Rattus norvegicus, UniProt P21396)
T7 construct: purchased Eurofins Cerep (SafetyScreen44), recognised from the panel format
T7 sequence (P21396 1-526): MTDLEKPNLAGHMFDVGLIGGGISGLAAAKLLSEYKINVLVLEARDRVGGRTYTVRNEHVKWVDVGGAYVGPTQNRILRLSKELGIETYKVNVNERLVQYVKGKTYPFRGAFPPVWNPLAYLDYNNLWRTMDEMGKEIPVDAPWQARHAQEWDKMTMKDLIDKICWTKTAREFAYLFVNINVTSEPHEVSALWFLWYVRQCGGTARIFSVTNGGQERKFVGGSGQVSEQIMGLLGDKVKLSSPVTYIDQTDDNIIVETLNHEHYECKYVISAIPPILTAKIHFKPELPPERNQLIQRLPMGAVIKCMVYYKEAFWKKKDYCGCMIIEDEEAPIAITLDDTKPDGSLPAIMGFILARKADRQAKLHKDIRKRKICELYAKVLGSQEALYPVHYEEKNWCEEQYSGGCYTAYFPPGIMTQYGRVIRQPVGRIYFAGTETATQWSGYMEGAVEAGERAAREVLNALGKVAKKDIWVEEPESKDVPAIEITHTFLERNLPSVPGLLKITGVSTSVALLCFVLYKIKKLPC
Experiment: In vitro CEREP profiling, MAO-A (antagonist radioligand)
Type: binding
Conditions: test compound concentration 10 uM
Excerpt: as §1

SMILES | perc_inhibition (% inhibition of the binding of a ligand specific for each target) [%]
Cn1ncc(-c2cc3c(N[C@@H](c4ccc5c(n4)OCCO5)C(C)(C)C)ncnc3[nH]2)c1C#N [ASAP-0011221] | 10

Target: T8, M3 (h) (Homo sapiens, UniProt P20309)
T8 construct: purchased Eurofins Cerep (SafetyScreen44), recognised from the panel format
Experiment: In vitro CEREP profiling, M3 (h) (antagonist radioligand)
Type: binding
Conditions: test compound concentration 10 uM
Excerpt: as §1

T8 sequence (P20309 whole entry): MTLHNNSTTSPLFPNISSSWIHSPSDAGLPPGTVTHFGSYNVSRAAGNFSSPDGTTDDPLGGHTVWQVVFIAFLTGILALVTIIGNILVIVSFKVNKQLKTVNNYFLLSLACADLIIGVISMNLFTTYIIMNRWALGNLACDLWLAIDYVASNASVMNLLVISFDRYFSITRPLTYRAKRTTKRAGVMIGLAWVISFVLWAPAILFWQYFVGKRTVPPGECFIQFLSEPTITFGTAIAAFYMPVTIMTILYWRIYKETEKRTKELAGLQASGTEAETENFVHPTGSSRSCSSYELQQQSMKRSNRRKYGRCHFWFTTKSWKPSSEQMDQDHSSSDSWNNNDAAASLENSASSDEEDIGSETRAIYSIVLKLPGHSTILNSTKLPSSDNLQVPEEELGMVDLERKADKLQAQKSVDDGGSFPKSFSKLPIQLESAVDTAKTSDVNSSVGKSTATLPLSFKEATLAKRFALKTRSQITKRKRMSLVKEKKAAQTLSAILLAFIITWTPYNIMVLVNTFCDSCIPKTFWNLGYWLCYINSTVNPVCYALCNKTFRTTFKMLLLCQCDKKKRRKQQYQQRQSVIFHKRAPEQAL

SMILES | perc_inhibition (% inhibition of the binding of a ligand specific for each target) [%]
Cn1ncc(-c2cc3c(N[C@@H](c4ccc5c(n4)OCCO5)C(C)(C)C)ncnc3[nH]2)c1C#N [ASAP-0011221] | -8

Target: T9, H2 (h) (Homo sapiens, UniProt P25021)
T9 construct: purchased Eurofins Cerep (SafetyScreen44), recognised from the panel format
Experiment: In vitro CEREP profiling, H2 (h) (antagonist radioligand)
Type: binding
Conditions: test compound concentration 10 uM
Excerpt: as §1

T9 sequence (P25021 whole entry): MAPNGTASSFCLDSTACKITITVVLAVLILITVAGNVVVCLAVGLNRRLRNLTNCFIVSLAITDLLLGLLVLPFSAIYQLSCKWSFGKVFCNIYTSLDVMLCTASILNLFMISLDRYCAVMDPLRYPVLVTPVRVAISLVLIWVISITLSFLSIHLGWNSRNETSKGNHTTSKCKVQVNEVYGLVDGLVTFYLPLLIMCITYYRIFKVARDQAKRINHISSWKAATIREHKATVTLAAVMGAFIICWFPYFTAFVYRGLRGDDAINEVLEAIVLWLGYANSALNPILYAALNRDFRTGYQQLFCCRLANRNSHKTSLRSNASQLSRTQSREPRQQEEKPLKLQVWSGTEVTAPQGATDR

SMILES | perc_inhibition (% inhibition of the binding of a ligand specific for each target) [%]
Cn1ncc(-c2cc3c(N[C@@H](c4ccc5c(n4)OCCO5)C(C)(C)C)ncnc3[nH]2)c1C#N [ASAP-0011221] | -10
